Results published in the NIST ThermoML archive (doi:10.1016/j.jct.2015.11.012).
± gives the expanded uncertainty stated by the source.

Key:
[1] = 100 kPa, Liquid; for viscosity: Capillary tube (Ostwald / Ubbelohde) method; for speed of sound: Frequency=2 MHz, Linear variable-path acoustic interferometer; for mass density: Vibrating tube method
[2] = xn = mol fraction of the nth substance listed; details: 100 kPa, Liquid; for viscosity: Capillary tube (Ostwald / Ubbelohde) method; for speed of sound: Frequency=2 MHz, Linear variable-path acoustic interferometer; for mass density: Vibrating tube method

| SMILES | viscosity ([1]; 303.15 K) | speed of sound ([1]; 303.15 K) | mass density ([1]; 303.15 K) | viscosity ([1]; 308.15 K) | speed of sound ([1]; 308.15 K) | mass density ([1]; 308.15 K) | viscosity ([1]; 313.15 K) | speed of sound ([1]; 313.15 K) | mass density ([1]; 313.15 K) | viscosity ([1]; 318.15 K) | speed of sound ([1]; 318.15 K) | mass density ([1]; 318.15 K) | also measured |
| --- | --- | --- | --- | --- | --- | --- | --- | --- | --- | --- | --- | --- | --- |
| OCCCl [1-chloro-2-hydroxyethane] | 2.578 ± 1 mPa·s | 1342.8 ± 8.2 m/s | 1192.12 ± 4 kg/m3 | 2.259 ± 1 mPa·s | 1328.5 ± 8.1 m/s | 1186.63 ± 4 kg/m3 | 1.852 mPa·s | 1315.5 ± 8 m/s | 1178.05 ± 4 kg/m3 | 1.564 mPa·s | 1301.2 ± 7.9 m/s | 1170.87 ± 4 kg/m3 | – |
| NCCO [2-aminoethan-1-ol] | 14.42 ± 1 mPa·s | 1703.1 ± 10 m/s | 1008.72 ± 4 kg/m3 | 11.71 ± 1 mPa·s | 1685.8 ± 10 m/s | 1004.65 ± 4 kg/m3 | 9.564 ± 1 mPa·s | 1671.2 ± 10 m/s | 1000.74 ± 4 kg/m3 | 7.558 ± 1 mPa·s | 1653.2 ± 10 m/s | 996.04 ± 4 kg/m3 | – |
| NCCO [2-aminoethan-1-ol] + Nc1cccc(Cl)c1 | – | – | – | – | – | – | – | – | – | – | – | – | viscosity ([2]; 303.15 K, x2 = 0): 14.42 ± 1 mPa·s; speed of sound ([2]; 303.15 K, x2 = 0): 1703.1 ± 10 m/s; mass density ([2]; 303.15 K, x2 = 0): 1008.72 ± 4 kg/m3; viscosity ([2]; 308.15 K, x2 = 0): 11.71 ± 1 mPa·s; speed of sound ([2]; 308.15 K, x2 = 0): 1685.8 ± 10 m/s; mass density ([2]; 308.15 K, x2 = 0): 1004.65 ± 4 kg/m3; viscosity ([2]; 313.15 K, x2 = 0): 9.564 ± 1 mPa·s; speed of sound ([2]; 313.15 K, x2 = 0): 1671.2 ± 10 m/s; mass density ([2]; 313.15 K, x2 = 0): 1000.74 ± 4 kg/m3; viscosity ([2]; 318.15 K, x2 = 0): 7.558 ± 1 mPa·s; speed of sound ([2]; 318.15 K, x2 = 0): 1653.2 ± 10 m/s; mass density ([2]; 318.15 K, x2 = 0): 996.04 ± 4 kg/m3 |
| OCCc1ccccc1 [2-phenylethanol] | 9.045 ± 1 mPa·s | 1508.4 ± 9.2 m/s | 1012.34 ± 4 kg/m3 | 7.193 ± 1 mPa·s | 1490.8 ± 9.1 m/s | 1008.63 ± 4 kg/m3 | 6.085 ± 1 mPa·s | 1470.6 ± 9 m/s | 1004.84 ± 4 kg/m3 | 4.984 ± 1 mPa·s | 1456.4 ± 8.9 m/s | 1000.94 ± 4 kg/m3 | – |
| OCCc1ccccc1 [2-phenylethanol] + Nc1cccc(Cl)c1 | – | – | – | – | – | – | – | – | – | – | – | – | viscosity ([2]; 303.15 K, x2 = 0): 9.045 ± 1 mPa·s; speed of sound ([2]; 303.15 K, x2 = 0): 1508.4 ± 9.2 m/s; mass density ([2]; 303.15 K, x2 = 0): 1012.34 ± 4 kg/m3; viscosity ([2]; 308.15 K, x2 = 0): 7.193 ± 1 mPa·s; speed of sound ([2]; 308.15 K, x2 = 0): 1490.8 ± 9.1 m/s; mass density ([2]; 308.15 K, x2 = 0): 1008.63 ± 4 kg/m3; viscosity ([2]; 313.15 K, x2 = 0): 6.085 ± 1 mPa·s; speed of sound ([2]; 313.15 K, x2 = 0): 1470.6 ± 9 m/s; mass density ([2]; 313.15 K, x2 = 0): 1004.84 ± 4 kg/m3; viscosity ([2]; 318.15 K, x2 = 0): 4.984 ± 1 mPa·s; speed of sound ([2]; 318.15 K, x2 = 0): 1456.4 ± 8.9 m/s; mass density ([2]; 318.15 K, x2 = 0): 1000.94 ± 4 kg/m3 |
| Nc1cccc(Cl)c1 [3-chlorobenzenamine] | 4.255 ± 1 mPa·s | 1517.5 ± 9.3 m/s | 1205.32 ± 4 kg/m3 | 3.842 ± 1 mPa·s | 1501.2 ± 9.2 m/s | 1200.75 ± 4 kg/m3 | 3.43 ± 1 mPa·s | 1480.3 ± 9 m/s | 1196.02 ± 4 kg/m3 | 3.022 ± 1 mPa·s | 1464.8 ± 8.9 m/s | 1191.25 ± 4 kg/m3 | – |
| Nc1cccc(Cl)c1 [3-chlorobenzenamine] + OCCCl | – | – | – | – | – | – | – | – | – | – | – | – | viscosity ([2]; 303.15 K, x1 = 1): 4.255 ± 1 mPa·s; speed of sound ([2]; 303.15 K, x1 = 1): 1517.5 ± 9.3 m/s; mass density ([2]; 303.15 K, x1 = 1): 1205.32 ± 4 kg/m3; viscosity ([2]; 308.15 K, x1 = 1): 3.842 ± 1 mPa·s; speed of sound ([2]; 308.15 K, x1 = 1): 1501.2 ± 9.2 m/s; mass density ([2]; 308.15 K, x1 = 1): 1200.75 ± 4 kg/m3; viscosity ([2]; 313.15 K, x1 = 1): 3.43 ± 1 mPa·s; speed of sound ([2]; 313.15 K, x1 = 1): 1480.3 ± 9 m/s; mass density ([2]; 313.15 K, x1 = 1): 1196.02 ± 4 kg/m3; viscosity ([2]; 318.15 K, x1 = 1): 3.022 ± 1 mPa·s; speed of sound ([2]; 318.15 K, x1 = 1): 1464.8 ± 8.9 m/s; mass density ([2]; 318.15 K, x1 = 1): 1191.25 ± 4 kg/m3 |
